According to patent publication US10676452B2, “Compound for the prophylaxis or treatment of organ damage” (Sulfateq B.V., priority 2015, dated 2020):
Entries after “also recorded” stand apart in the source; their conditions may differ.

Legend:
[1] = Solubility of SUL121 in 50% DMSO in saline solution; assay type: physicochemical; conditions: aqueous with cosolvent or surfactant or cyclodextrin, kinetic from dmso stock, read-out: solubility in 50% DMSO (completely soluble up to)
Experimental: (§1) Cell culture grade DMSO was obtained from Sigma-Aldrich (Zwijndrecht, the Netherlands). 0.9% sterile saline solutions were from Baxter (Utrecht, the Netherlands). (6-hydroxy-2,5,7,8-tetramethylchroman-2-yl)(piperazin-1-yl)methanone (SUL121) was supplied by Sulfateq BV, Groningen, the Netherlands supplied in a formulation of 500 mM in 100% DMSO corresponding to 177 g/l. Osmotic minipumps (Alzet, USA) are resistant to DMSO concentrations≤50%. Therefore, the solubility of SUL121 was tested in 50% DMSO in saline solution. SUL121 was completely soluble in 50% DMSO up to a concentration of 12.6 g/1. Alzet model 2004 pumps were loaded with 200 μl of 12.6 g/1 SUL121 solution or with 200 ul 50% DMSO solution (vehicle). According to pump specifications 6 μl of SUL121 was administered per day, resulting in a daily dose of 2.2 mg/kg/day for a 35 gram mouse.

db/db mice [2] = assay: Metabolic data (body weight, water intake, urine output, non-fasting blood glucose) in db/db mouse Type 2 diabetes model; assay type: in vivo
Text: Given its effectiveness in the model of renal ischemia and reperfusion, it was hypothesized that compound SUL 121 will also protect the kidney in an experimental model of obesity induced Type 2 diabetes (T2DM). Therefore, the effects of SUL121 on the development of albuminuria and renal damage in the mouse Type 2 diabetes model was studied. For the study, the db/db mouse model was employed. […] Diabetes starts at the age of 6-8 weeks and adequate levels of kidney damage and albuminuria can be observed at the age of 18 weeks.
To study the effects of SUL121 on the development of diabetes, treatment with SUL121 started from the age of 10 weeks until the age of 18 weeks. In addition, to study the effects of SUL 121 on healthy animals, control mice were treated similarly. A non-treated control group was included in the study, to serve as healthy untreated control. Drug and vehicle were administered by implantation of osmotic minipumps at the age of 10 and 14 weeks.
as §1
(§2) Male db/db mice (n=16) and lean heterozygous control animals (n=16) were purchased from Harlan UK (strain JAX000642). All mice were housed individually. Water and food were given ad-libitum. Four groups of mice were investigated: • 1) db/db+vehicle (diabetic control) • 2) db/db+Sul121 (treated diabetic group) • 3) wt+vehicle (non-diabetic control) • 4) wt+Sul121 (to study effect of drug only) Drug and vehicle were administered by implantation of osmotic minipumps at the age of 10 (t=0) and 14 weeks (t=4). Metabolic cages and blood pressure measurements were performed every two weeks. Blood samples could not be obtained by cheek puncture, therefore blood was collected from the retro orbital plexus at the age of 10 (t=0) and 12 weeks (t=2). At the age of 18 weeks (t=8) all animals were terminated and blood was collected by cardiac puncture. Urinary Measurements
(§3) Urinary glucose concentrations were measured by the glucose oxidase method with a specific electrode from 24-h urine collections after the samples were stored in −20° C. The urinary creatinine concentration was measured by standard laboratory methods (Jaffe method without deproteinization, DiaSys Diagnostic Systems, Holzheim, Germany). The median values of the 24-h urine collections and of the albumin-to-creatinine ratio were calculated. In addition, mouse albumin levels in urine were determined manually using a mouse albumin Elisa kit (Abcam, Cambridge, UK). Urinary hydrogen peroxide levels were determined using an Amplex Red H2O2 assay kit (Life technologies, Leusden, the Netherlands).

db/db mice [3] = assay: Arterial blood pressure by tail-cuff method; assay type: in vivo, mouse
Experimental: as §2
Arterial blood pressure was measured in anaesthetized mice (2% isoflurane) by means of the tail-cuff method (PS-200A; Riken-Kaihatsu; Tokyo, Japan). For each animal, blood pressure values represent the mean of three to ten recordings obtained in a single session.

db/db mice [4] = assay: Organ (kidney) weights at termination; assay type: in vivo, mouse; conditions: diabetic mice, after 8 weeks of treatment
Experimental: as §2
After 8 weeks of treatment, mice were terminated and organ weights were measured (FIG. 2). […] SUL 121 treatment normalized kidney weights to non-diabetic control values.

db/db mice [5] = assay: Urinary albumin excretion and albumin/creatinine ratio; assay type: in vivo, mouse
Experimental: as §2, §3
To test whether SUL 121 treatment could reduce renal damage, albumin leakage into the urine was measured at all time points for diabetic animals. Total albumin excretion per day (AER) was calculated by multiplying urinary albumin concentration with daily urinary output (FIG. 3A).

db/db mice [6] = assay: Renal histology: PAS staining, focal glomerulosclerosis (FGS) score; assay type: in vivo, mouse; conditions: diabetic mice
Text: Four-micrometer-thick formalin fixed sections were deparaffinized and stained for periodic acid-Schiff (PAS) for quantification of focal glomerulosclerosis (FGS) and tubular injury. FGS was semiquantitatively scored in a blinded fashion by determining the level of mesangial expansion and focal adhesion in each quadrant in a glomerulus and expressed on a scale from 0 to 4. If 25% of the glomerulus was affected, it was scored as 1, 50% as 2, 75% as 3, and 100% as 4. In total, 50 glomeruli per kidney were analyzed, and the total FGS score was calculated by multiplying the score by the percentage of glomeruli with the same FGS score. Thus the total FGS score ranged from 0 to 200.

mouse aortic rings = assay: Organ bath experiments with the isolated aorta of treated mice (ACh relaxation after PE precontraction); assay type: in vivo; conditions: for max. relaxation to ACh (remaining % of PE preconstriction): aortic rings
Experimental: Freshly isolated thoracic aortic rings (1.5-2 mm in length) were mounted on 200-μm stainless wires in individual myograph baths (Danish Myo Technology, Aarhus, Denmark). Briefly, baths containing 6 ml Krebs solution were warmed to 37° C. and preequilibrated and continuously aerated with 95% O2-5% CO2 to maintain pH at 7.4. The length of the aortic strips was assessed by microscopy. Aortic rings were equilibrated for 40 min until they were at a steady baseline. Rings were then primed and checked for viability by two consecutive stimulations with KCl (60 mM) followed by washings and renewed stabilization to obtain reproducible contractile responses.
Contraction responses were measured as cumulative concentration-response curves to phenylephrine (PE; 10 nM-100 μM) followed by a single concentration of KCl (90 mM). Endothelium-dependent relaxation was assessed by obtaining concentration-response curves to ACh (10 nM-300 μM) in rings precontracted with PE (1 μM) followed by stimulation with a high concentration of the NO donor sodium nitroprusside (SNP; 0.1 mM) to assess maximal endothelium-independent dilation.
To study the role of the endothelium in vasoconstrictor effects, rings were denuded by removing the endothelial cell layer by rubbing the luminal side of the vessel with a moistened wire. To examine the contribution of different EDRFs in modulating vasoconstrictor responses and mediating endothelium-dependent relaxation, inhibitors of PG and NO synthesis were used. To this end, PG components were assessed by preincubating rings (20 min.) with the nonspecific cyclooxygenase inhibitor indomethacin (10 μM). The NO component was examined by subsequent incubation with both NO synthesis inhibitor NG-monomethyl-L-arginine (L-NMMA; 1 μM) and indomethacin. The remaining ACh-mediated relaxation was attributed to an unidentified EDHF.
Contractions to KCl and PE are given in milliNewtons. Relaxation responses to ACh and SNP are expressed as percentages of the preconstriction with PE. In addition to that, the area under each individual curve (AUC; in arbitrary units) was determined for ACh-induced relaxation (SigmaPlot version 10.0, Systat Software, San Jose, Calif.). The AUC was used to present total endothelium-dependent relaxation and for the subsequent analysis of differences in ACh-mediated relaxation with and without inhibitors present to estimate the contribution of the different EDRFs, i.e., PGs for the part sensitive to cycloxygenase inhibition with indomethacin, NO for the part sensitive to NOS inhibition with L-NMMA, and EDHF by means of exclusion of PG and NO (34).

db/db mice [7] = assay: Plasma hydrogen peroxide (ROS production in diabetes); assay type: in vivo, mouse; conditions: diabetic mice
Experimental: as §3
Enhanced reactive oxygen species (ROS) production is a well-established phenomenon in diabetes. To study the effects of SUL121 treatment on ROS production, hydrogen peroxide, a stable metabolite of ROS, was measured in plasma (FIG. 6). SUL 121 treatment normalized H2O2 levels in plasma.

[8] = test system: mouse renal mesangial cells; assay: In-vitro model of diabetes: intracellular ROS under high glucose and insulin; assay type: cell-based
Text: To further explore the mechanisms through which SUL 121 mediates renal protection in diabetes, an in-vitro model of diabetes was employed. For this, mouse renal mesangial cells were exposed to conditions simulating type 2 diabetes (high glucose and insulin). Exposure to high glucose/insulin increased intracellular ROS levels by approximately 70% (FIG. 7).

rat kidney = conditions: blood flow stopped and restored; cited from earlier work

solubility [1]: ≥ 12.6 mg/mL
Structure (SMILES): Cc1c(C)c2c(c(C)c1O)CCC(C)(C(=O)N1CCNCC1)O2 (stereo not shown) [SUL121, (6-hydroxy-2,5,7,8-tetramethylchroman-2-yl)(piperazin-1-yl)methanone]
effect on urine output and water intake (db/db mice [2]; all time points other than week 8): did not significantly affect | effect on blood glucose levels (db/db mice [2]; diabetic db/db mice): did not affect | non-fasting blood glucose level (db/db mice [2]; diabetic db/db mice, end of the experiment): 35.3 ± 1.1 mM | non-fasting blood glucose level (db/db mice [2]; diabetic db/db mice, start of the experiment): 27.2 ± 1.3 mM | urine output (db/db mice [2]; diabetic db/db mice, week 8): 11.2 ± 3.8 g | water intake (db/db mice [2]; diabetic db/db mice, week 8): 10.9 ± 3.9 g | effect on blood pressure (db/db mice [3]; diabetic mice): did not affect | effect on blood pressure (db/db mice [3]; non-diabetic wild type mice, week 2): lowered | effect on blood pressure (db/db mice [3]; week 6): did not affect | effect on kidney weights (kidney hypertrophy) (db/db mice [4]): normalized | effect on total albumin excretion per day (AER) (db/db mice [5]; diabetic animals, weeks 6 and 8): prevented the progression | albumin/creatinine ratio (ACR) (db/db mice [5]; diabetic mice, week 6): 534 ± 79 µg/mg | albumin/creatinine ratio (ACR) (db/db mice [5]; diabetic mice, week 8 (not statistically significant vs diabetic control)): 866 ± 91 µg/mg | effect on AER (db/db mice [5]; non-diabetic animals): did not affect | total albumin excretion per day (AER) (db/db mice [5]; non-diabetic animals, week 8): 31.3 ± 4.6 µg/day | albumin/creatinine ratio (ACR) (db/db mice [5]; wild type animals, week 8): 55 ± 6 µg/mg | effect on focal glomerular sclerosis (FGS) scores (db/db mice [6]): significantly reduced | effect on focal glomerular sclerosis (FGS) scores (db/db mice [6]; listed as SUL 121): significantly lowered | effect on NO and prostaglandin components of relaxation (mouse aortic rings; diabetic animals): non-significant (p=0.06) increase | effect on EDHF component of total relaxation (mouse aortic rings; diabetic animals, with L-NMMA and indomethacin): significantly increasing | effect on endothelium mediated relaxation (mouse aortic rings; diabetic mice): restores | max. relaxation to ACh (remaining % of PE preconstriction) (mouse aortic rings; treated diabetic group): 11.3±2.3% | max. relaxation to ACh (remaining % of PE preconstriction) (mouse aortic rings; treated non-diabetic controls): 9.2±1.6% | effect on plasma H2O2 levels (db/db mice [7]): normalized | effect on high glucose/insulin induced increase of intracellular ROS ([8]; cells pretreated, high glucose and insulin): substantially inhibited; also recorded: normalized | effect on intracellular ROS production, compound alone ([8]; without high glucose/insulin): did not affect | reduction of ischemia and reperfusion damage (rat kidney): very effective
